Reference: ChEMBL document CHEMBL5316327, “Design and Synthesis of Orally Active Quinolyl Pyrazinamides as Sigma 2 Receptor Ligands for the Treatment of Pancreatic Cancer” (J Med Chem, 2023)
Activity calls are given as the source filed them. No cut-off for these calls is given here.

Columns and labels:
[1] = test system: MIA PaCa-2; experiment: cells; conditions: Homo sapiens, MIA PaCa-2, 72 h
[2] = molecular target: Sigma non-opioid intracellular receptor 1 (Homo sapiens, UniProt Q99720); experiment: Displacement of [3H](+)-pentazocine from human sigma 1 receptor transfected in human HEK293T cells assessed as inhibition constant by radioligand competition binding assay; assay type: cell-based
Sequence of Sigma non-opioid intracellular receptor 1 (Q99720 whole entry): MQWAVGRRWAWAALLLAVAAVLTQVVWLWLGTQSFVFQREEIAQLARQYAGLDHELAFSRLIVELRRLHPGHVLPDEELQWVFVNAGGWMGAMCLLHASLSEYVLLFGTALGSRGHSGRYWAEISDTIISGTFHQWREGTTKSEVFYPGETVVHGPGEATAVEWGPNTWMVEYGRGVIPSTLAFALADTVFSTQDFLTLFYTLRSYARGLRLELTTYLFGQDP

[3] = molecular target: Sigma intracellular receptor 2 (Homo sapiens, UniProt Q5BJF2); experiment: Displacement of [3H][…]ditolylguanidine from human sigma 2 receptor transfected in human HEK293T cells assessed as inhibition constant by radioligand competition binding assay; assay type: cell-based
Sequence of Sigma intracellular receptor 2 (Q5BJF2 whole entry): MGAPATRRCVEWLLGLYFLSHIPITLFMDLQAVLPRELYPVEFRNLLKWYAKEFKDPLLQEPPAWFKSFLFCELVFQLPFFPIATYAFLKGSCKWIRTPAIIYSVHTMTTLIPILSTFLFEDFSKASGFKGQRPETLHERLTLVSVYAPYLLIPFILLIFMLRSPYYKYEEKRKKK

[4] = Cytotoxicity against HEK293 cells measured after 72 hrs by MTT assay; assay type: toxicity, cell-based; conditions: human
[5] = Cytotoxicity against HPDE cells measured after 72 hrs by MTT assay; assay type: toxicity, cell-based; conditions: human
[6] = Metabolic stability in mouse liver microsomes assessed as half life at 10 uM measured upto 60 mins in presence of NADPH by LC-MS/MS analysis; assay type: ADME, Microsome; conditions: 1 h
[7] = test system: MIA PaCa-2; experiment: Upregulation of GRP78 in human MIA PaCa-2 cells at 10 to 30 uM measured after 24 hrs by Western blot analysis; assay type: functional, cell-based; conditions: dose 10-30 µM
[8] = Metabolic stability in human liver microsomes assessed as half life at 10 uM measured upto 60 mins in presence of NADPH by LC-MS/MS analysis; assay type: ADME, Microsome; conditions: for t1/2: microsomes, 1 h, 10 µM
[9] = Cytotoxicity against HFF-1 cells measured after 72 hrs by MTT assay; assay type: toxicity, cell-based; conditions: human
[10] = test system: MIA PaCa-2; experiment: Antagonistic cytotoxicity against human MIA PaCa-2 cells at 0.001 to 0.1 uM measured after 7 days in presence of ammonium tetrathiomolybdate by crystal violet staining based analysis; assay type: functional, cell-based; conditions: dose 0.001-0.1 µM, time 7.0 day
[11] = test system: MIA PaCa-2; experiment: Synergistic cytotoxicity against human MIA PaCa-2 cells at 0.001 to 0.1 uM measured after 7 days in presence of copper chloride by crystal violet staining based analysis; assay type: functional, cell-based; conditions: dose 0.001-0.1 µM, time 7.0 day
[12] = test system: MIA PaCa-2; experiment: Inhibition of colony formation in human MIA PaCa-2 cells at 0.04 to 30 uM pretreated with ammonium tetrathiomolybdate for 4 hrs followed by compound addition and measured after 6 days; assay type: functional, cell-based; conditions: dose 0.04-30 µM, time 6.0 day
[13] = test system: HCT-116; experiment: Inhibition of colony formation in human HCT-116 cells at 0.04 to 30 uM pretreated with ammonium tetrathiomolybdate for 4 hrs followed by compound addition and measured after 6 days; assay type: functional, cell-based; conditions: dose 0.04-30 µM, time 6.0 day
[14] = test system: PANC-1; experiment: cells; conditions: Homo sapiens, PANC-1, 72 h
[15] = test system: BXPC-3; experiment: cells; conditions: Homo sapiens, BXPC-3, 72 h
[16] = test system: Panc02; experiment: cells; conditions: Mus musculus, Panc02, 72 h
[17] = cells; conditions: Mus musculus, KPC2, 72 h

| Structure (SMILES) | IC50 [1] | Ki [2] | Ki [3] | also measured |
| --- | --- | --- | --- | --- |
| O=C(CCNc1cnc(C(=O)Nc2cc(F)cc3cccnc23)cn1)NO | 20000 nM |  |  |  |
| Nc1ccn([C@@H]2O[C@H](CO)[C@@H](O)C2(F)F)c(=O)n1 [GEMCITABINE] |  |  |  | IC50 at 72 h [4]: 100 nM; IC50 at 72 h [5]: 1 nM |
| O=C(Nc1cc(F)cc2cccnc12)c1cnc(NCCN2CCS(=O)(=O)CC2)cn1 | > 30000 nM | 2290 nM | 3770 nM |  |
| O=C(CN1CCC(CN2Cc3ccccc3C2=O)CC1)c1ccc(F)cc1 |  |  |  | Activity [7]: Active |
| CCN(CC)CCCC(C)Nc1cnc(C(=O)Nc2ccc(Cl)c3ccc(OC)nc23)cn1 (stereo not given) | 5400 nM | 356 nM | 79 nM |  |
| CN(C)CCCNc1cnc(C(=O)Nc2cc(F)cc3cccnc23)cn1 | 2400 nM | 110 nM | 105 nM |  |
| CCN(CC)CCCC(C)Nc1cnc(C(=O)Nc2cccc3ccc(OC)nc23)cn1 (stereo not given) | 1900 nM | 67 nM | 13 nM | t1/2 [6]: 54 min; half-life at 10 µM ([8]; liver microsomes): > 60 min |
| Cc1cc(NC(=O)c2cnc(S(=O)(=O)NCCN(C)C)cn2)c2ncccc2c1 | 600 nM | 508 nM | 2150 nM | t1/2 [6]: 6 min |
| COCCNc1cnc(C(=O)Nc2cc(F)cc3cccnc23)cn1 | 1200 nM |  |  |  |
| O=C(Nc1cccc2cccnc12)c1cnccn1 |  |  |  | IC50 at 72 h [9]: > 30000 nM; IC50 at 72 h [4]: 200 nM; IC50 at 72 h [5]: 600 nM; Activity [10]: Active; Activity [11]: Active; inhibition [12]: inactive; inhibition [13]: inactive; IC50 [14]: 1700 nM; IC50 [15]: 1800 nM; IC50 [16]: 300 nM; IC50 [17]: 200 nM |
| CCCNc1cnc(C(=O)Nc2cc(F)cc3cccnc23)cn1 | 2600 nM |  |  |  |
| Cc1cc(NC(=O)c2cnc(OC3CCNCC3)cn2)c2ncccc2c1 | 6500 nM | 336 nM | 134 nM |  |
| O=C(Nc1cc(F)cc2cccnc12)c1cnc(NCCN2CCCC2)cn1 | 2000 nM | 208 nM | 165 nM |  |
| CCN(CC)CCCC(C)Nc1cnc(C(=O)Nc2cc(C)c(Cl)c3cccnc23)cn1 (stereo not given) | 3200 nM | 67 nM | 36 nM |  |
| Cc1cc(NC(=O)c2cnc(NCCN3CCNCC3)cn2)c2ncccc2c1 | 15600 nM | 677 nM | 400 nM |  |
| CC(C)CS(=O)(=O)Nc1cnc(C(=O)Nc2cc(F)cc3cccnc23)cn1 | > 30000 nM |  |  |  |
| O=C(Nc1cc(F)cc2cccnc12)c1cnc(NS(=O)(=O)CCC(F)(F)F)cn1 | > 30000 nM |  |  |  |
| Fc1ccc(-n2cc(CCCCN3CCC4(CC3)OCc3ccccc34)c3ccccc32)cc1 |  |  |  | Activity [7]: Active |
| Cc1cc(NC(=O)c2cnc(N3CCN(CCN)CC3)cn2)c2ncccc2c1 | 7400 nM | 166 nM | 129 nM |  |
| CN(C)CCOc1cnc(C(=O)Nc2cc(F)cc3cccnc23)cn1 | 600 nM | 112 nM | 1340 nM |  |
| CCN(CC)CCCC(C)Nc1cnc(C(=O)Nc2ccc(OC)c3ccc(OC)nc23)cn1 (stereo not given) | 2900 nM | 132 nM | 70 nM |  |
| CN(C)CCNc1cnc(C(=O)Nc2cc(F)cc3cccnc23)cn1 | 1400 nM | 627 nM | 471 nM |  |

More lines, main results first:

| IC50 [1] | Ki [2] | Ki [3] | Structure (SMILES) | also measured |
| --- | --- | --- | --- | --- |
| 1800 nM | 95 nM | 14 nM | CCN(CC)CCCC(C)Nc1cnc(C(=O)Nc2cc(Cl)cc3cccnc23)cn1 (stereo not given) |  |
| > 30000 nM | 1460 nM | 65 nM | CCN(CC)CCCC(C)Nc1cnc(CNc2cc(F)cc3cccnc23)cn1 (stereo not given) |  |
| 1100 nM | 250 nM | 85 nM | CCN(CC)CCCC(C)Nc1cnc(C(=O)Nc2cc(C)cc3cccnc23)cn1 (stereo not given) | t1/2 [6]: 21 min |
| 10100 nM | 405 nM | 108 nM | CCN(CC)CCCC(C)Nc1cnc(C(=O)Nc2cc(C#N)cc3cccnc23)cn1 (stereo not given) |  |
| 9900 nM | 233 nM | 44 nM | CCN(CC)CCCC(C)Nc1cnc(C(=O)Nc2cccc3ccc(C)nc23)cn1 (stereo not given) |  |
| 3800 nM | 188 nM | 38 nM | CCN(CC)CCCC(C)Nc1ccc(S(=O)(=O)Nc2cc(F)cc3cccnc23)nc1 (stereo not given) | t1/2 [6]: 15 min; t1/2 [8]: 39.2 min |
| 1700 nM | 398 nM | 42 nM | CCN(CC)CCCC(C)Nc1cnc(C(=O)Nc2ccc(C)c3cccnc23)cn1 (stereo not given) |  |
| 3000 nM | 212 nM | 18 nM | CCN(CC)CCCC(C)Nc1cnc(C(=O)Nc2ccc(F)c3cccnc23)cn1 (stereo not given) |  |
| 4900 nM | 83 nM | 12 nM | CCN(CC)CCCC(C)Nc1cnc(C(=O)Nc2cccc3ccc(Cl)nc23)cn1 (stereo not given) |  |
| > 30000 nM |  | 1630 nM | CCN(CC)CCCC(C)Nc1cnc(C(=O)Nc2c(OC)ccc3cccnc23)cn1 (stereo not given) |  |
| 2300 nM | 169 nM | 16 nM | CCN(CC)CCCC(C)Nc1cnc(C(=O)Nc2cccc3cc(C)cnc23)cn1 (stereo not given) |  |
| 3800 nM | 155 nM | 51 nM | CCN(CC)CCCC(C)Nc1cnc(C(=O)Nc2cccc3cc(Cl)cnc23)cn1 (stereo not given) |  |
| 3700 nM | 196 nM | 22 nM | CCN(CC)CCCC(C)Nc1cnc(C(=O)Nc2cccc3cccnc23)cn1 (stereo not given) |  |
| 2300 nM | 137 nM | 13 nM | CCN(CC)CCCC(C)Nc1cnc(C(=O)Nc2cc(OC)cc3cccnc23)cn1 (stereo not given) |  |
| 9500 nM | 159 nM | 71 nM | CCN(CCO)CCCC(C)Nc1cnc(C(=O)Nc2cc(C)cc3cccnc23)cn1 (stereo not given) |  |
| > 30000 nM |  | 2660 nM | CCN(CC)CCCC(C)Nc1cnc(C(=O)Nc2c(C)ccc3cccnc23)cn1 (stereo not given) |  |
| 3900 nM | 122 nM | 28 nM | CCN(CC)CCCC(C)Nc1cnc(C(=O)Nc2cc(F)c(Cl)c3cccnc23)cn1 (stereo not given) |  |
| 1600 nM | 46 nM | 27 nM | CCN(CC)CCCC(C)Nc1cnc(C(=O)Nc2cc(Br)cc3cccnc23)cn1 (stereo not given) |  |
| > 30000 nM | 463 nM | 52 nM | CCN(CC)CCCC(C)NCC(=O)Nc1cc(C)cc2cccnc12 (stereo not given) |  |
| 4900 nM | 385 nM | 155 nM | CCN(CC)CCCC(C)Nc1cnc(C(=O)Nc2cc(C(F)(F)F)cc3cccnc23)cn1 (stereo not given) |  |
| 6800 nM | 317 nM | 40 nM | CCN(CC)CCCC(C)Nc1cnc(C(=O)Nc2ccc(OC)c3cccnc23)cn1 (stereo not given) |  |
| 7900 nM | 1270 nM | 458 nM | CCN(CC)CCCC(C)Nc1cnc(C(=O)Nc2cc(O)cc3cccnc23)cn1 (stereo not given) |  |
| 3000 nM | 71 nM | 27 nM | CCN(CC)CCCC(C)Nc1cnc(C(=O)Nc2cc(C3CC3)cc3cccnc23)cn1 (stereo not given) |  |
| 3400 nM | 59 nM | 20 nM | CCN(CC)CCCC(C)Nc1cnc(C(=O)Nc2cccc3c(Cl)ccnc23)cn1 (stereo not given) |  |
| 1500 nM | 159 nM | 32 nM | CCN(CC)CCCC(C)Nc1nc(C(=O)Nc2cc(F)cc3cccnc23)cs1 (stereo not given) | t1/2 [6]: 3.3 min; t1/2 [8]: 23 min |
